test system: PBMC from HLA-DQ2+ coeliac subjects; experiment: Interferon gamma ELISPOT, hordein 20mer first round library after barley challenge; type: cell-based, human; set-up: key to individual peptide showing maximal response in a single individual (asterisk): *: an asterisk indicates the eight individual peptides showing maximal response in a single individual; settings: not given
Protocol: Peptides were initially dissolved in aqueous acetonitrile (50%). Peptides in aqueous acetonitrile were transferred to sterile 96-well plates and diluted in sterile PBS with 1 mM calcium (250 mcg/ml) and then incubated with tTG (25 mcg/ml) (Sigma T5398) for 6 h 37° C. and then stored frozen (−20° C.) until use.
(§1) IFNγ ELISpot assays (Mabtech, Sweden) were performed in 96-well plates (MAIP S-45, Millipore) in which each well contained 25 mcl of peptide solution and 100 mcl of PBMC (2-8×10^5/well) in RPMI containing 10% heat inactivated human AB serum. After development and drying, IFNγ ELISpot plates were assessed using the MAIP automated ELISpot plate counter. Data was then analysed according to a novel algorithm (Expectation Maximization: EM) to define and quantify interferon-gamma responses to 9mer sequences contained within the peptide library (see FIG. 3 and below). 9mer peptides were then rationalised according to an algorithm that assumes redundancy in T-cell recognition, the “IterativeCluster” algorithm (see FIG. 4 and below), by allowing groups of amino acids with similar chemical properties at any one position in the 9mer, or for glutamate to replace glutamine at any position (assuming deamidation may have occurred).
Secalin and hordein 20mer first round peptide libraries were assessed 3 days after completing rye (bread, 100 g/d for 3 days) or barley (boiled, 100 g/d for 3 days) challenge (“day 6” PBMC interferon gamma ELISPOT responses). Although iterative analysis using 2nd and 3rd round peptide libraries to define epitopes has not yet been performed, the 20mers pre-treated with tTG found to induce “potent” responses shared substantial structural similarity to the bioactive peptides identified after wheat challenge. […] The dominant (>70% maximal response) 20mer after rye challenge was usually […] (SEQ ID NO: 1769) (8/14 subjects), or occasionally […] (SEQ ID NO: 1770) (4/14), […] (SEQ ID NO: 1771) (1/14), […] (SEQ ID NO: 1772) (1/14) and/or […] (SEQ ID NO: 1773) (1/14). Additional peptides noted for greater than 40% maximal response in at least 1 subject include:
Typically, the dominant peptides after barley challenge included one of six peptide motifs, or were one of eight other individual 20mers “dominant” in only one of 17 subjects after barley challenge. The six motifs identified:
The barley hordein peptides showing at least 40% maximal peptide response in at least one subject include the following, wherein an asterisk indicates the eight individual peptides showing maximal response in a single individual: […]

Sequence	individual peptide showing maximal response in a single individual (asterisk)
PQPYPQQPQPFPQQPPFCQQ (Description of Artificial Sequence: Synthetic gluten peptide) [barley hordein 20mer]	*
PQQPPFWPQQPFPQQPPFGL (Description of Artificial Sequence: Synthetic gluten peptide) [barley hordein 20mer]	*
PQQPQQPFPQPQQPFSWQPQ (Description of Artificial Sequence: Synthetic gluten peptide) [barley hordein 20mer]	*

same assay, conditions: 17 subjects

Sequence	number of subjects with > 70% maximal response	subjects with at least 40% maximal peptide response
FPLQPQQPFPQQPQQPFPQQ (Description of Artificial Sequence: Synthetic gluten peptide) [barley hordein 20mer]	0	1/17
FPQPQEPFPQQPQQPFPLQP (Description of Artificial Sequence: Synthetic gluten peptide) [barley hordein 20mer]	0	1/17
FPQYQIPTPLQPQQPFPQQP (Description of Artificial Sequence: Synthetic gluten peptide) [barley hordein 20mer]	1	2/17
FQQPQQSYPVQPQQPFPQPQ (Description of Artificial Sequence: Synthetic gluten peptide) [barley hordein 20mer]	1	3/17
LAAQLPAMCRLEGGGGLLAS (Description of Artificial Sequence: Synthetic gluten peptide) [barley hordein 20mer]	1	1/17
PFPQPPQQKYPEQPQQPFPW (Description of Artificial Sequence: Synthetic gluten peptide) [barley hordein 20mer]	1	1/17
PFPQPQQPFPWQPQQPFPQP (Description of Artificial Sequence: Synthetic gluten peptide) [barley hordein 20mer]	0	6/17
PFPQPQQPFSWQPQQPFLQP (Description of Artificial Sequence: Synthetic gluten peptide) [barley hordein 20mer]	0	1/17
PFPQQPQQPFPQPQQPFRQQ (Description of Artificial Sequence: Synthetic gluten peptide) [barley hordein 20mer]	3	6/17
PQGSEQIIPQQPFPLQPQPF (Description of Artificial Sequence: Synthetic gluten peptide) [barley hordein 20mer]	1	2/17
PQPFPQQPIPQQPQPYPQQP (Description of Artificial Sequence: Synthetic gluten peptide) [barley hordein 20mer]	2	6/17
PQPYPQQPQPFPQQPPFCQQ (Description of Artificial Sequence: Synthetic gluten peptide) [barley hordein 20mer]	1	1/17
PQQASPLQPQPQQASPLQPQ (Description of Artificial Sequence: Synthetic gluten peptide) [barley hordein 20mer]	1	1/17
PQQPPFWPQQPFPQQPPFGL (Description of Artificial Sequence: Synthetic gluten peptide) [barley hordein 20mer]	1	1/17
PQQPQQPFPQPQQPFSWQPQ (Description of Artificial Sequence: Synthetic gluten peptide) [barley hordein 20mer]	2	6/17

test system: PBMC from HLA-DQ2+ coeliac subjects; experiment: Interferon gamma ELISPOT, second round wheat gliadin and glutenin 16mer library; type: cell-based, human; settings: 16mers pre-treated with transglutaminase; 18 or 28 subjects
Text: 12mer peptides were then identified in which each potential deamidation site could be in position 4, 6 or 7 in the 9mer located within HLA-DQ2 binding groove (HLA-DQ2 anchors at these positions show a preference for glutamate). Candidate 12mer core epitope sequences were then flanked with glycine followed by the N-terminal residue present in the parent gliadin polypeptide and at the C-terminal by the C-terminal residue present in the parent gliadin polypeptide followed by glycine (i.e. GXXXXXXXQXXXXXXG (SEQ ID NO: 1936)). […]
as §1
All 2nd round 16mer peptides were assessed in at least 18 subjects. […] All 16mers identified for the second round Oxford library also fulfilled the selection criteria for the Melbourne second round library.
The second round peptide library data was analysed according to the “dominance” of peptide responses in the interferon gamma ELISPOT in individual subjects i.e. the percent response of an individual's PBMC to a specific peptide normalized against that individual's maximal peptide-induced response. Sequences of peptides that stimulated at least 40% of the maximal peptide-specific response in at least one subject are shown in Table 1 below. The dataset supports the consistency and “dominance” of peptides conforming to the sequences identified using the first round 20mer peptide library using the Expectation Maximization (EM) algorithm described above.

Sequence	subjects with 10-40% of maximal peptide-specific response	subjects with 40-70% of maximal peptide-specific response	subjects with <10% of maximal peptide-specific response
LALQTLPAMCNVYIPP [wheat 16mer, second round library]	Nil	Nil	17/18
LEAVTSIALRTLPTMC [wheat 16mer, second round library]	1/18	1/18	
LQQQCSPVAMPQRLAR [wheat 16mer, second round library]	11/28	1/28	15/28
LQTLPSMCNVYIPPYC [wheat 16mer, second round library]	Nil	Nil	17/18
PGQGQSGYYPTSPQQS [wheat 16mer, second round library]	Nil	1/18	16/18
QGQPGYYPTSPQQIGQ [wheat 16mer, second round library]	1/18	1/18	15/18
QGQQGYYPISPQQSGQ [wheat 16mer, second round library]	1/18	1/18	15/18
QGQQGYYPTSPQQPPQ [wheat 16mer, second round library]	Nil	1/18	Nil
QQGYYPISPQQLGQGQ [wheat 16mer, second round library]	Nil	1/18	Nil
QQGYYPTSPQQSGQGQ (QGQQGYYPTSPQQPPQ; Description of Artificial Sequence: Synthetic gluten peptide) [wheat 16mer, second round library]	Nil	1/18	17/18
VAHAIIMHQQQQQQQE [wheat 16mer, second round library]	2/28	1/28	25/28
VPLYRTTTSVPFGVGT [wheat 16mer, second round library]	Nil	Nil	17/18
YVPPDCSTINVPYANI [wheat 16mer, second round library]	1/18	1/18	15/18

same assay, conditions: 16mers pre-treated with transglutaminase; normalized to individual's maximal response; 18 or 28 subjects

Sequence	subjects with >70% of maximal peptide-specific response
LALQTLPAMCNVYIPP [wheat 16mer, second round library]	Nil
LEAVTSIALRTLPTMC [wheat 16mer, second round library]	Nil
LQQQCSPVAMPQRLAR [wheat 16mer, second round library]	1/28
LQTLPSMCNVYIPPYC [wheat 16mer, second round library]	Nil
PGQGQSGYYPTSPQQS [wheat 16mer, second round library]	1/18
QGQPGYYPTSPQQIGQ [wheat 16mer, second round library]	1/18
QGQQGYYPISPQQSGQ [wheat 16mer, second round library]	1/18
QGQQGYYPTSPQQPPQ [wheat 16mer, second round library]	Nil
QQGYYPISPQQLGQGQ [wheat 16mer, second round library]	Nil
QQGYYPTSPQQSGQGQ (QGQQGYYPTSPQQPPQ; Description of Artificial Sequence: Synthetic gluten peptide) [wheat 16mer, second round library]	Nil
VAHAIIMHQQQQQQQE [wheat 16mer, second round library]	Nil
VPLYRTTTSVPFGVGT [wheat 16mer, second round library]	Nil
YVPPDCSTINVPYANI [wheat 16mer, second round library]	1/18
